By melting point is commonly meant the temperature of the solid-liquid transition.

We go through 29 compounds from patent US7563903B2, “Acylaminothiazole derivatives, their preparation and their therapeutic use” (Sanofi-Aventis, priority 2003, dated 2009).

As to `CCC[C@H](NC(=O)[C@@H](O)C(C)C)C(=O)Nc1ncc(-c2cc(F)ccc2COc2ccccc2)s1` [compound 56, (2S)—N-{5-[5-fluoro-2-(phenoxymethyl)phenyl]-1,3-thiazol-2-yl}-2-{[(2S)-2-hydroxy-3-methylbutanoyl]amino}pentanamide], the melting point was found to be 61.4 °C.
`CCC[C@H](NC(=O)[C@@H](O)C(C)(C)C)C(=O)Nc1ncc(-c2ccccc2COc2ccc(C)cc2C)s1` [compound 32, (2S)—N-(5-{2-[(2,4-dimethylphenoxy)methyl]phenyl}-1,3-thiazol-2-yl)-2-{[(2S)-2-hydroxy-3,3-dimethylbutanoyl]amino}pentanamide] came in with a melting point of 86 °C.
`CCC[C@H](NC(=O)[C@@H](O)C(C)(C)C)C(=O)Nc1ncc(-c2ccccc2COc2ccccc2OC(F)(F)F)s1` [compound 24, (2S)-2-{[(2S)-2-hydroxy-3,3-dimethylbutanoyl]amino}-N-[5-(2-{[2-(trifluoromethoxy)phenoxy]methyl}phenyl)-1,3-thiazol-2-yl]pentanamide] registered a melting point of 66 °C.
In turn, `CCC[C@H](NC(=O)[C@@H](O)C(C)(C)C)C(=O)Nc1ncc(-c2ccc(C)cc2COc2ccccc2)s1` [compound 59, (2S)-2-{[(2S)-2-hydroxy-3,3-dimethylbutanoyl]amino}-N-{5-[4methyl-2-(phenoxymethyl)phenyl]-1,3-thiazol-2-yl}pentanamide] yielded a melting point of 92.6 °C.
`CCC[C@@H](NC(=O)[C@@H](O)C(C)(C)C)C(=O)Nc1ncc(-c2ccccc2COc2ccccc2)s1` [compound 35, (2R)-2-{[(2S)-2-hydroxy-3,3-dimethylbutanoyl]amino}-N-{5-[2-(phenoxymethyl)phenyl]-1,3-thiazol-2-yl}pentanamide] had a melting point of 78.5 °C.
The figure for `CCC[C@H](NC(=O)[C@@H](O)C(C)(C)C)C(=O)Nc1ncc(-c2ccc(Cl)cc2COc2ccccc2)s1` [compound 47, (2S)—N-{5-[4-chloro-2-(phenoxymethyl)phenyl]-1,3-thiazol-2-yl}-2-{[(2S)-2-hydroxy-3,3-dimethylbutanoyl]amino}pentanamide] is 93.5 °C; for `CCC[C@H](NC(=O)[C@@H](O)C(CC)CC)C(=O)Nc1ncc(-c2ccccc2COc2ccccc2)s1` [Compound No. 43, (2S)-3-ethyl-2-hydroxy-N-{(1S)-1-[({5-[2-(phenoxymethyl)phenyl]-1,3-thiazol-2-yl}amino)carbonyl]butyl}pentanamide] it is 122.5 °C; for `CCC[C@H](NC(=O)[C@@H](O)C(C)(C)C)C(=O)Nc1ncc(-c2ccc(OC)cc2COC(C)C)s1` [compound 44, (2S)-2-{[(2S)-2-hydroxy-3,3-dimethylbutanoyl]amino}-N-{5-[2-(isopropoxymethyl)-4-methoxyphenyl]-1,3-thiazol-2-yl}pentanamide] it is 79 °C.
In turn, `CCC[C@H](NC(=O)[C@@H](O)C(C)(C)C)C(=O)Nc1ncc(-c2ccccc2COc2ccccc2)s1` [Compound No. 9, (2S)-2-{[(2S)-2-hydroxy-3,3-dimethylbutanoyl]amino}-N-{5-[2-(phenoxymethyl)phenyl]-1,3-thiazol-2-yl}pentanamide] registered a melting point of 84 °C.
The compound `CCC[C@H](NC(=O)[C@@H](O)C(C)(C)C)C(=O)Nc1ncc(-c2ccccc2COc2c(F)cccc2F)s1` [compound 46, (2S)—N-(5-{2-[(2,6-difluorophenoxy)methyl]phenyl}-1,3-thiazol-2-yl)-2-{[(2S)-2-hydroxy-3,3-dimethylbutanoyl]amino}pentanamide] displayed a melting point of 63.5 °C.
The figure for `CCC[C@H](NC(=O)[C@@H](O)C(C)(C)C)C(=O)Nc1ncc(-c2ccccc2COc2cccc(C#N)c2)s1` [compound 61, (2S)—N-(5-{2-[(3-cyanophenoxy)methyl]phenyl}-1,3-thiazol-2-yl)-2-{[(2S)-2-hydroxy-3,3-dimethylbutanoyl]amino}pentanamide] is 162.6 °C; for `CCC[C@H](NC(=O)[C@@H](O)C(C)(C)C)C(=O)Nc1ncc(-c2ccccc2COc2ccc(C)c(C)c2)s1` [compound 27, (2S)—N-(5-{2-[(3,4-dimethylphenoxy)methyl]phenyl}-1,3-thiazol-2-yl)-2-{[(2S)-2-hydroxy-3,3-dimethylbutanoyl]amino}pentanamide] it is 89 °C; for `CCC[C@H](NC(=O)[C@@H](O)C(C)(C)C)C(=O)Nc1ncc(-c2ccccc2COc2cccc(Cl)c2Cl)s1` [compound 73, (2S)—N-(5-{2-[(2,3-dichlorophenoxy)methyl]phenyl}-1,3-thiazol-2-yl)-2-{[(2S)-2-hydroxy-3,3-dimethylbutanoyl]amino}pentanamide] it is 71.1 °C.
The figure for `CCC[C@H](NC(=O)[C@@H](O)C(C)(C)C)C(=O)Nc1ncc(-c2ccccc2COc2cccc(OC(F)(F)F)c2)s1` [compound 17, (2S)-2-{[(2S)-2-hydroxy-3,3-dimethylbutanoyl]amino}-N-[5-(2-{[3-(trifluoromethoxy)phenoxy]methyl}phenyl)-1,3-thiazol-2-yl]pentanamide] is 114 °C.
In the case of `CCC[C@H](NC(=O)[C@@H](O)C(C)(C)C)C(=O)Nc1ncc(-c2ccc(F)cc2COc2ccccc2)s1` [compound 48, (2S)—N-{5-[4-fluoro-2-(phenoxymethyl)phenyl]-1,3-thiazol-2-yl}-2-{[(2S)-2-hydroxy-3,3-dimethylbutanoyl]amino}pentanamide], the melting point is 75.5 °C.
Compound `CCC[C@H](NC(=O)[C@@H](O)C(C)(C)C)C(=O)Nc1nc(C)c(-c2ccccc2COc2ccccc2)s1` [compound 34, (2S)-2-{[(2S)-2-hydroxy-3,3-dimethylbutanoyl]amino}-N-{4-methyl-5-[2-(phenoxymethyl)phenyl]-1,3-thiazol-2-yl}pentanamide] showed a melting point of 99 °C.
As to `CCC[C@H](NC(=O)[C@@H](O)C(C)C)C(=O)Nc1ncc(-c2ccc(C)cc2COc2ccccc2)s1` [compound 65, (2S)-2-{[(2S)-2-hydroxy-3-methylbutanoyl]amino}-N-{5-[4-methyl-2-(phenoxymethyl)phenyl]-1,3-thiazol-2-yl}pentanamide], the melting point stood at 135.5 °C.
Take `CCC[C@H](NC(=O)[C@@H](O)C(C)(C)C)C(=O)Nc1ncc(-c2ccccc2COC2CCCCC2)s1` [compound 57, (2S)—N-(5-{2-[(cyclohexyloxy)methyl]phenyl}-1,3-thiazol-2-yl)-2-{[(2S)-2-hydroxy-3,3-dimethylbutanoyl]amino}pentanamide]: the melting point worked out at 88 °C.
In the case of `CCC[C@H](NC(=O)CC(C)(C)C)C(=O)Nc1ncc(-c2ccccc2COC(C)C)s1` [compound 13, (2S)-2-[(3,3-dimethylbutanoyl)amino]-N-{5-[2-(isopropoxymethyl)phenyl]-1,3-thiazol-2-yl}pentanamide], the melting point stood at 77 °C.
Turning to `CCC[C@H](NC(=O)[C@@H](O)C(C)(C)C)C(=O)Nc1ncc(-c2ccccc2COc2cccc(C)c2C)s1` [compound 26, (2S)—N-(5-{2-[(2,3-dimethylphenoxy)methyl]phenyl}-1,3-thiazol-2-yl)-2-{[(2S)-2-hydroxy-3,3-dimethylbutanoyl]amino}pentanamide], the melting point was found to be 88 °C.
Consider `CCC[C@H](NC(=O)C(O)CC(C)C)C(=O)Nc1ncc(-c2ccccc2COC2CCCCC2)s1` (stereo partly drawn) [Compound No. 4, N-((1S)-1-{[(5-{2-[(cyclohexyloxy)methyl]phenyl}-1,3-thiazol-2-yl)amino]carbonyl}butyl)-2-hydroxy-4-methylpentanamide], for which the melting point stood at 85 °C.
Compound `CCC[C@H](NC(=O)[C@@H](O)C(C)(C)C)C(=O)Nc1ncc(-c2ccc(OCC)cc2COc2ccccc2)s1` [compound 52, (2S)—N-{5-[4-ethoxy-2-(phenoxymethyl)phenyl]-1,3-thiazol-2-yl}-2-{[(2S)-2-hydroxy-3,3-dimethylbutanoyl]amino}pentanamide] gave a melting point of 81 °C.
`CCC[C@H](NC(=O)[C@@H](O)C(C)C)C(=O)Nc1ncc(-c2ccc(OCC)cc2COc2ccccc2)s1` [compound 53, (2S)—N-{5-[4-ethoxy-2-(phenoxymethyl)phenyl]-1,3-thiazol-2-yl}-2-{[(2S)-2-hydroxy-3-methylbutanoyl]amino}pentanamide] came in with a melting point of 107.8 °C.
Consider `CCC[C@H](NC(=O)[C@@H](O)C(C)(C)C)C(=O)Nc1ncc(-c2ccccc2COc2ccc(Cl)c(C)c2)s1` [compound 72, (2S)—N-(5-{2-[(4-chloro-3-methylphenoxy)methyl]phenyl}-1,3-thiazol-2-yl)-2-{[(2S)-2-hydroxy-3,3-dimethylbutanoyl]amino}pentanamide], for which the melting point came to 83.4 °C.
Compound `CCC[C@H](NC(=O)[C@@H](O)CC(C)C)C(=O)Nc1ncc(-c2ccccc2COC2CCCCC2)s1` [compound 51, (2S)—N-((1S)-1-{[(5-{2-[(cyclohexyloxy)methyl]phenyl}-1,3-thiazol-2-yl)amino]carbonyl}butyl)-2-hydroxy-4-methylpentanamide] displayed a melting point of 158 °C.
`CCC[C@H](NC(=O)[C@@H](O)C(C)(C)C)C(=O)Nc1ncc(-c2ccccc2COc2ccccc2F)s1` [compound 19, (2S)—N-(5-{2-[(2-fluorophenoxy)methyl]phenyl}-1,3-thiazol-2-yl)-2-{[(2S)-2-hydroxy-3,3-dimethylbutanoyl]amino}pentanamide] had a melting point of 92 °C.
As for `CCC[C@H](NC(=O)[C@@H](O)C(C)(C)C)C(=O)Nc1ncc(-c2ccccc2COc2ccc(OC)c(OC)c2)s1` [compound 30, (2S)—N-(5-{2-[(3,4-dimethoxyphenoxy)methyl]phenyl}-1,3-thiazol-2-yl)-2-{[(2S)-2-hydroxy-3,3-dimethylbutanoyl]amino}pentanamide], the figure is 81.5 °C; as for `CCC[C@H](NC(=O)[C@@H](O)C(C)(C)C)C(=O)Nc1ncc(-c2ccccc2COc2ccccc2CC)s1` [compound 20, (2S)—N-(5-{2-[(2-ethylphenoxy)methyl]phenyl}-1,3-thiazol-2-yl)-2-{[(2S)-2-hydroxy-3,3-dimethylbutanoyl]amino}pentanamide], 107 °C; as for `CCC[C@H](NC(=O)[C@@H](O)C(C)(C)C)C(=O)Nc1ncc(-c2ccccc2COc2c(OC)cccc2OC)s1` [compound 31, (2S)—N-(5-{2-[(2,6-dimethoxyphenoxy)methyl]phenyl}-1,3-thiazol-2-yl)-2-{[(2S)-2-hydroxy-3,3-dimethylbutanoyl]amino}pentanamide], 69.5 °C.
